Patent EP3184514A1, “AUTOPHAGY INHIBITORS” (Deutsches Krebsforschungszentrum, priority 2015, dated 2017)
Where two headings read alike, the source gives them in different places.

Experiments:
LC3B [1] = target: T1, LC3B (Homo sapiens, UniProt Q9GZQ8); assay: AlphaScreen interaction displacement assay (GST-LC3B / biotin-LIRtide); type: binding
T1 construct: made in house; host or cells: E. coli Rosetta (DE3)
Description: The AlphaScreen assay contained 50 mM Tris (pH 7.5), 100 mM NaCl, 0.01% Tween 20, 2 mM DTT, 1 % DMSO and 2-30 nM GST-LC3B and biotin-LIRtide 2-30 nM. The concentrations of GST-LC3B and biotin-LIRtide were experimentally chosen from a cross-titration assay exploring the different combinations of for each batch of protein used and when a new batch of buffer was prepared.
A gene encoding for human LC3B protein inserted in a pET-GST expression vector was used as a template. Rosetta (DE3) competent cells were transformed by started procedure, plated on an LB agar plate with ampicillin (100 µg/ml) and left overnight at 37 °C. Overnight culture was prepared from a single colony and shaken at 180 rpm at 37 °C. LB medium with ampicillin was inoculated with overnight culture (10 ml per 500 ml of LB) and shaken until the optical density at 600 nm (OD600) reached a value of approximately 0.6. Protein expression was then induced with 400 µM IPTG and further incubated for 4 hours. Bacterial culture was centrifuged for 20 minutes at 6000 rpm at 4 °C. The pellet was then resuspended in lysis buffer (20 mM TRIS-HCl pH 7.5, 10 mM EDTA, 5 mM EGTA, 150 mM NaCl, 0.5 % NP40, 1 % Triton X-100, 1 mM DTT, 2 mg/ml lysozyme, 0.05 U/µl benzonase, 1x protease inhibitor cocktail). Lysate was then stored at -20 °C over night. Sample was thawed in water bath and sonicated on ice (40 % amplitude, 30 seconds pulse/30 seconds pause cycle). Lysate was centrifuged at 10000xg at 4 °C for half an hour. Meanwhile, 500 µl of glutathione sepharose beads was equilibrated with lysis buffer and then added to the supernatant. The mixture was incubated and rotated at room temperature for 2 hours. After binding of the protein to the beads, beads were spun down at 500xg at 4 °C for 5 minutes. Pellet was then washed with cold wash buffer at least four times (20 mM Tris-HCl pH 7.5, 10 mM EDTA, 5 mM EGTA, 150 mM NaCl, 1 mM DTT), dried and stored in 5 % glycerol at 4 °C.

LC3B [2] = assay: cellular autophagy screening: LC3B spots by immunocytochemistry and automated confocal imaging; type: cell-based; conditions: relative to negative DMSO control, 100 µM, 1 hour; for LC3B Inhibition cell based Fold increase of LC3B spots: Table 2a; for LC3B inhibition cell based Fold increase of LC3B spots [DMSO control 1.0]: Table 1-a, n.e. means no effect
Description: For screening purposes, cells were seeded in 384 well plates and left over night for attachment.
Afterwards, medium was removed and 4 % (w/v) paraformaldehyde (PFA) in PBS buffer was added to the cells for 20 minutes, incubated at room temperature. Cells were permeabilized with 0.1 % (v/v) Triton X-100 for 10 min at room temperature and washed with PBS. Cells were blocked with 3 % (w/v) bovine serum albumin (BSA) in PBS for 45 minutes at 37 °C and then incubated with anti-LC3B (PM036, MBL) or anti-p62 (PM045 or M162-3, MBL) primary antibody diluted in 0.3 % BSA (1:2000 or 1:500) for 1.5-2 hours at 37 °C. Cells were washed three times with PBS.
384 well plates were then analyzed with an automated confocal microscope Opera (PerkinElmer) enabling high throughput high content screening image analysis. […] A water immersion 60x objective was used for optical slicing and stacking (5x0.5 µm stacks). […] Signal was detected with a fast gated CCD camera. Acapella software (PerkinElmer) is an algorithm based high content imaging and analysis software used in multi-parametric multiplex assays. Acapella was used to follow cell viability (i.e. number of cells) and the number of LC3B and p62 spots per cell.
The LC3B protein is a ubiquitin-like protein that can be conjugated to phosphatidylethanolamine (PE) in the membrane of the incipient autophagosome. The nonlipidated and lipidated forms are usually referred to as LC3B-I and LC3B-II, respectively. […] Autophagic flux is often inferred on the basis of LC3B-II turnover, measured by western blot (WB) or immunofluorescence (IF) in the presence and absence of lysosomal degradation. […] Lysosomal degradation can be prevented e.g. through the use of compounds that neutralize the lysosomal pH such as Bafilomycin A1 (BafA1) or chloroquine (CQ). […] An additive or supra-additive effect in LC3B-II levels (WB) and LC3B-positive punctae numbers (IF) may indicate that the treatment enhances autophagic flux. […] This assay can be complemented by simultaneous monitoring of autophagosomal substrates or autophagosomal substrate receptors (e.g. SQSTM1/p62) by WB and/or IF. For example, an increase in LC3B-II levels in combination with the accumulation of SQSTM1/p62 is indicative of a blockage of the autophagy pathway at terminal stages.

[3] = Table 2a, read-out: LC3B Inhibition cell free IC50
[4] = Table 1-a, n.e. means no effect, read-out: LC3B inhibition cell free IC50
[5] = Table 1-a, n.e. means no effect

| Structure (SMILES) | IC50 (LC3B [1]; [3]) [µM] | LC3B Inhibition cell based Fold increase of LC3B spots (LC3B [2]) | LC3B inhibition cell based Fold increase of LC3B spots [DMSO control 1.0] (LC3B [2]) | IC50 (LC3B [1]; [4]) [µM] | LC3B inhibition cell free IC50 (LC3B [1]; [5]) |
| --- | --- | --- | --- | --- | --- |
| CC(C)=CCc1cc(C(=O)Nc2c(O)c3ccc(O)c(C)c3oc2=O)ccc1O [Compound 2-1, N-(4,7-dihydroxy-8-methyl-2-oxo-2H-chromen-3-yl)-4-hydroxy-3-(3-methylbut-2-en-1-yl)benzamide] | 87 |  |  |  |  |
| COC1C(OC(N)=O)C(OC(C)=O)C(Oc2ccc3c(O)c(NC(=O)c4ccc(OC(C)=O)c(CC=C(C)C)c4)c(=O)oc3c2C)OC1(C)C (stereo not drawn) [Compound 2-2] | 19.3 | 1.5 |  |  |  |
| COC1C(OC(N)=O)C(O)C(Oc2ccc3c(O)c(NC(=O)c4ccc(O)c(CCC(C)C)c4)c(=O)oc3c2C)OC1(C)C (stereo not drawn) [Compound 2-4, 5-hydroxy-6-((4-hydroxy-3-(4-hydroxy-3-isopentylbenzamido)-8-methyl-2-oxo-2H-chromen-7-yl)oxy)-3-methoxy-2,2-dimethyltetrahydro-2H-pyran-4-y/carbamate] | 4.8 | 1.2 |  |  |  |
| COC1C(OC(N)=O)C(OC(C)=O)C(Oc2ccc3c(O)c(NC(=O)C(Cc4ccccc4)NC(=O)OC(C)(C)C)c(=O)oc3c2C)OC1(C)C (stereo not drawn) [Compound 2-7] | 145 | 1.0 |  |  |  |
| Cc1c(O)ccc2c(O)c(NC(=O)C(Cc3ccccc3)NC(=O)OC(C)(C)C)c(=O)oc12 (stereo not drawn) [Compound 2-8] | 122 | 1.0 |  |  |  |
| Cc1c(O)ccc2c(O)c(NC(=O)C(CC(C)C)NC(=O)OC(C)(C)C)c(=O)oc12 (stereo not drawn) [Compound 2-9] | 73.3 | 1.2 |  |  |  |
| Cc1c(O)ccc2c(O)c(NC(=O)C(CCc3ccccc3)NC(=O)OC(C)(C)C)c(=O)oc12 (stereo not drawn) [Compound 2-10] | 155 | 1.0 |  |  |  |
| Cc1c(O)ccc2c(O)c(NC(=O)c3cccc(-c4ccccc4)c3)c(=O)oc12 [Compound 2-11] | 63 | 1.1 |  |  |  |
| Cc1c(O)ccc2c(O)c(NC(=O)c3cccc(Oc4ccccc4)c3)c(=O)oc12 [Compound 2-12] | 54 | 1.1 |  |  |  |
| Clc1ccc(CSC2=NCN(Cc3cccnc3)CN2)cc1 [Compound I-2, 6-((4-chlorobenzyl)thio)-3-(pyridin-3-ylmethyl)-12,3,4-tetrahydro-1,3,5-triazine] |  |  | 3.2 | 16 |  |
| Fc1ccc(CSC2=NCN(Cc3cccnc3)CN2)cc1 [Compound I-3, 6-((4-fluorobenzyl)thio)-3-(pyridin-3-ylmethyl)-1,2,3,4-tetrahydro-1,3,5-triazine] |  |  | 1.8 | 23.6 |  |
| c1ccc(CSC2=NCN(Cc3cccnc3)CN2)cc1 [Compound I-4, 6-(benzylthio)-3-(pyridin-3-ylmethyl)-1,2,3,4-tetrahydro-1,3,5-triazine] |  |  | 1.7 | 19.5 |  |
| FC(F)(F)c1ccc(CSC2=NCN(Cc3cccnc3)CN2)cc1 [Compound I-5, 3-(pyridin-3-ylmethyl)-6-((4-(trifluoromethyl)benzyl)thio)-1,2,3,4-tetrahydro-1,3,5-triazine] |  |  | 3.2 | 30.9 |  |
| COc1ccc(CSC2=NCN(Cc3cccnc3)CN2)cc1 [Compound I-6, 6-((4-methoxybenzyl)thio)-3-(pyridin-3-ylmethyl)-1,2,3,4-tetrahydro-1,3,5-triazine] |  |  | 1.8 | 12.3 |  |
| CC(C)CCNC(=O)c1ccc(CSC2=NCN(Cc3cccnc3)CN2)cc1 [Compound I-7, N-isopentyl-4-(((5-(pyridin-3-ylmethyl)-1,4,5,6-tetrahydro-1,3,5-triazin-2-yl)thio)methyl)benzamide] |  |  | 3.1 | 26.6 |  |
| Brc1cccc(CSC2=NCN(Cc3cccnc3)CN2)c1 [Compound I-8, 6-((3-bromobenzyl)thio)-3-(pyridin-3-ylmethyl)-1,2,3,4-tetrahydro-1,3,5-triazine] |  |  | 3.0 | 21 |  |
| COc1cccc(CSC2=NCN(Cc3cccnc3)CN2)c1 [Compound I-9, 6-((3-methoxybenzyl)thio)-3-(pyridin-3-ylmethyl)-1,2,3,4-tetrahydro-1,3,5-triazine] |  |  | n.e. | 18.5 |  |
| c1ccc(Oc2cccc(CSC3=NCN(Cc4cccnc4)CN3)c2)cc1 [Compound I-10, 6-((3-phenoxybenzyl)thio)-3-(pyridin-3-ylmethyl)-1,2,3,4-tetrahydro-1,3,5-triazine] |  |  | 6.1 | 1 |  |
| CC(C)CCNC(=O)c1cccc(CSC2=NCN(Cc3cccnc3)CN2)c1 [Compound I-11, N-isopentyl-3-(((5-(pyridin-3-ylmethyl)-1,4,5,6-tetrahydro-1,3,5-triazin-2-yl)thio)methyl)benzamide] |  |  | n.e. | 12.2 |  |
| COC(=O)[C@H](CC(C)C)NC(=O)c1cccc(CSC2=NCN(Cc3cccnc3)CN2)c1 [Compound I-12, methyl(3-(((5-(pyridin-3-ylmethyl)-1,4,5,6-tetrahydro-1,3,5-triazin-2-yl)thio)methyl)benzoyl)leucinate] |  |  | 5.0 | 8.9 |  |
| Fc1ccc(CN2CN=C(SCc3ccc(Br)cc3)NC2)cc1 [Compound I-14, 6-((4-bromobenzyl)thio)-3-(4-fluorobenzyl)-1,2,3,4-tetrahydro-1,3,5-triazine] |  |  | 5.8 |  | n.e |
| Fc1ccc(CN2CN=C(SCc3cccc(Oc4ccccc4)c3)NC2)cc1F [Compound I-18, 3-(3,4-difluorobenzyl)-6-((3-phenoxybenzyl)thio)-1,2,3,4-tetrahydro-1,3,5-triazine] |  |  |  |  | n.e |
| Fc1cccc(CN2CN=C(SCc3ccc(Br)cc3)NC2)c1 [Compound I-19, 6-((4-bromobenzyl)thio)-3-(3-fluorobenzyl)-1,2,3,4-tetrahydro-1,3,5-triazine] |  |  |  |  | n.e. |
| Fc1cccc(CN2CN=C(SCc3cccc(Oc4ccccc4)c3)NC2)c1 [Compound I-20, 3-(3-fluorobenzyl)-6-((3-phenoxybenzyl)thio)-1,2,3,4-tetrahydro-1,3,5-triazine] |  |  |  |  | n.e. |
| CCN(CC)CCCC(C)Nc1ccnc2cc(Cl)ccc12 (stereo not drawn) [chloroquine, reference compound] |  | 4.4 | 4.4 |  |  |
| CCC(=O)N1CCN(c2ccc(-n3c(=O)ccc4cnc5ccc(-c6cnc7ccccc7c6)cc5c43)cc2C(F)(F)F)CC1 [torin 1, reference compound] |  | 3.1 | 3.1 |  |  |
